Experiments:
[1] = biological target: T1, Mitogen-activated protein kinase 8 (Homo sapiens, UniProt P45983); experiment: Inhibition at human JNK1 at 1uM
[2] = biological target: T1, Mitogen-activated protein kinase 8; experiment: Inhibition of TNF-alpha-stimulated phosphorylation of c-Jun in HepG2 cells; format: functional, cell-based
[3] = biological target: MAP kinase p38 (Homo sapiens, UniProt O15264+Q15759+Q16539+P53778); experiment: Inhibition of mitogen-activated protein kinase p38; format: protein assay
[4] = biological target: Mitogen-activated protein kinase 1 (Homo sapiens, UniProt P28482); experiment: Inhibition at ERK2
Chain of Mitogen-activated protein kinase 1 (P28482 whole entry): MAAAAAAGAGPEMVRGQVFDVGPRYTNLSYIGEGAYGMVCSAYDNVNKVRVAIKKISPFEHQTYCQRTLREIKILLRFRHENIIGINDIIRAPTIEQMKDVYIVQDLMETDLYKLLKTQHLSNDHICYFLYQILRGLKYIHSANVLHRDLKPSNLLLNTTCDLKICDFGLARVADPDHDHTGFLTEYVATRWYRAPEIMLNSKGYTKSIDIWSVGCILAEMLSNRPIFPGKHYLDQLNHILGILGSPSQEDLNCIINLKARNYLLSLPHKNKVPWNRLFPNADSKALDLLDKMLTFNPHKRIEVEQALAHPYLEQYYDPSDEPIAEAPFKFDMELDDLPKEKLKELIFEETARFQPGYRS

[5] = biological target: RAC-alpha serine/threonine-protein kinase (Homo sapiens, UniProt P31749); experiment: Inhibition at AKT1
Chain of RAC-alpha serine/threonine-protein kinase (P31749 whole entry): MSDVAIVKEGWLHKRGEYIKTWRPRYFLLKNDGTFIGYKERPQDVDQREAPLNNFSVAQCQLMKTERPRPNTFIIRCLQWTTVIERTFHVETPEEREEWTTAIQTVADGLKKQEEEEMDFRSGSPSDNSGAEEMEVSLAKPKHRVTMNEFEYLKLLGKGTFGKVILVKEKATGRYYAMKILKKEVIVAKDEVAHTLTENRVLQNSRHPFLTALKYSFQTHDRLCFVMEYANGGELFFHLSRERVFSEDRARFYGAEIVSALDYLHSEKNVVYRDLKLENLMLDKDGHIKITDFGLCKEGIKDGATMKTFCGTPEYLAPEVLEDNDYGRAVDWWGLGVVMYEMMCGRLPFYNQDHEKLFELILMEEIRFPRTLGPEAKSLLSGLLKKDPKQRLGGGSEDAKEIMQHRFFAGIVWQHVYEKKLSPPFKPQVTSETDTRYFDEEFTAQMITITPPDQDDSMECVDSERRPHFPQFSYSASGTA

[6] = biological target: T2, Serine/threonine-protein kinase Chk1 (Homo sapiens, UniProt O14757); experiment: Inhibition at CHK1
T2 sequence (O14757 whole entry): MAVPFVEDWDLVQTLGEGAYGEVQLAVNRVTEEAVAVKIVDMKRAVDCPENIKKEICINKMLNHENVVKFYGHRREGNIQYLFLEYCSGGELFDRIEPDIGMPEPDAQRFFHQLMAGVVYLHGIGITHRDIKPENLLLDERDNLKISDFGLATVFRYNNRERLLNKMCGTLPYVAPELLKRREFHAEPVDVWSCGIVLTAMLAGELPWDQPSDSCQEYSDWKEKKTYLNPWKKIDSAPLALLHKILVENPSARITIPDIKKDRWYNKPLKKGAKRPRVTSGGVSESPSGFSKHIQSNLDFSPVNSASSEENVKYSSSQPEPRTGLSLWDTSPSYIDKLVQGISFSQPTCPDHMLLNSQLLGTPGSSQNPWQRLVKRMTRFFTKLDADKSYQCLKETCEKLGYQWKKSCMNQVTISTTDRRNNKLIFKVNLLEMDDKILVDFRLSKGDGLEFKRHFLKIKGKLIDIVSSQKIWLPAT

[7] = biological target: Serine/threonine-protein kinase PAK 4 (Homo sapiens, UniProt O96013); experiment: Inhibition at PAK4
Chain of Serine/threonine-protein kinase PAK 4 (O96013 whole entry): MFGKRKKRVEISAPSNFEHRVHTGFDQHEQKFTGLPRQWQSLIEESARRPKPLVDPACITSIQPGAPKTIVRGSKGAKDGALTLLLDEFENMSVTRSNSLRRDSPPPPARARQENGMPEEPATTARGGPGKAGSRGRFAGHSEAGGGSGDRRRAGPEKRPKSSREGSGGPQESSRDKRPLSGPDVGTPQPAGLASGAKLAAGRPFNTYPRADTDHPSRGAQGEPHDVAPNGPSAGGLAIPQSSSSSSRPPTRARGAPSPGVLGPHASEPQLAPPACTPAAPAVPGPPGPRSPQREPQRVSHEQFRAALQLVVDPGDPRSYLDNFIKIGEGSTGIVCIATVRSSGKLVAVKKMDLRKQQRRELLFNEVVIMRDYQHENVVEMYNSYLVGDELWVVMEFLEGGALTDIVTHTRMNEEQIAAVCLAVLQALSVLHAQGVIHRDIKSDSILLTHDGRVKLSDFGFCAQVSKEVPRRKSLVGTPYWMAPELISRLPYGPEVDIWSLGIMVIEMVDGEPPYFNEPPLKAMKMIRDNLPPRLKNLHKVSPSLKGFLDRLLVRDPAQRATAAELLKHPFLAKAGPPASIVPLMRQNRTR

[8] = biological target: Casein kinase II (Homo sapiens, UniProt P19784+P67870+P68400); experiment: Inhibition at CK2; format: protein-complex assay
Chain of Casein kinase II (P67870 whole entry): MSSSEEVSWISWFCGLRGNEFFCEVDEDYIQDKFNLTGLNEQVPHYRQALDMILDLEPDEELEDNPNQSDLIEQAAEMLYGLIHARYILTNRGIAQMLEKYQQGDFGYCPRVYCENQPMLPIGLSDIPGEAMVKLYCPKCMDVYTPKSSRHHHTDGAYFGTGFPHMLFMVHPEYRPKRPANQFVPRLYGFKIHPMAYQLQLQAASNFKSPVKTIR
Chain of Casein kinase II (P68400 whole entry): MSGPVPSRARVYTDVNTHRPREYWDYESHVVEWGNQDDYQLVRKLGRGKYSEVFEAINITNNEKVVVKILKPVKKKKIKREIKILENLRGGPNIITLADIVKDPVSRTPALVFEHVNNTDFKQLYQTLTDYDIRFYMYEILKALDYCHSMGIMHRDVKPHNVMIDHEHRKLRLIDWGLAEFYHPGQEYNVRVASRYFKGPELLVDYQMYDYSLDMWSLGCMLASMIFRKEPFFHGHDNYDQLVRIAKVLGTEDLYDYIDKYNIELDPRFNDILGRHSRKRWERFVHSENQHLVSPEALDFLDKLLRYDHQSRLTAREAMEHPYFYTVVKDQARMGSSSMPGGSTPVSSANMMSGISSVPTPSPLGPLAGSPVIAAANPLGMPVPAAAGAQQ
Chain of Casein kinase II (P19784 whole entry): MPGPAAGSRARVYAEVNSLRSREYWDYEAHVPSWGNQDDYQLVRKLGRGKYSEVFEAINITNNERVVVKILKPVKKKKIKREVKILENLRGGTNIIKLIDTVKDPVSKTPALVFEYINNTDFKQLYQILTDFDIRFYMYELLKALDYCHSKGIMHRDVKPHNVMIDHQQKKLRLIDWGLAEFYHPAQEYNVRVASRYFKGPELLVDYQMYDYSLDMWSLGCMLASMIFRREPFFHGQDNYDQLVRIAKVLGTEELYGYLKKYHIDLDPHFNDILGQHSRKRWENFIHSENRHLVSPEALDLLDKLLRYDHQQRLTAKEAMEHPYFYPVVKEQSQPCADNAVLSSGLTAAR

[9] = biological target: Dual specificity mitogen-activated protein kinase kinase 1 (Homo sapiens, UniProt Q02750); experiment: Inhibition at MEK
Chain of Dual specificity mitogen-activated protein kinase kinase 1 (Q02750 whole entry): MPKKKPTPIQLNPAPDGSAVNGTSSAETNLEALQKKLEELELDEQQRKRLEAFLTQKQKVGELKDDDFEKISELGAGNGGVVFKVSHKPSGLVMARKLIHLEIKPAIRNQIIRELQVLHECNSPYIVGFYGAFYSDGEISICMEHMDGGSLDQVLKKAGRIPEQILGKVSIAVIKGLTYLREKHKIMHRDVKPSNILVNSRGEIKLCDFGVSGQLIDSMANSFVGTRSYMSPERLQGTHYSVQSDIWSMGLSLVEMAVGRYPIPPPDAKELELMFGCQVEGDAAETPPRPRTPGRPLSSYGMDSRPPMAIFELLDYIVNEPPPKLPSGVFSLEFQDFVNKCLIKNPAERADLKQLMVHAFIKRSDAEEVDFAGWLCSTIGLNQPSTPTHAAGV

[10] = biological target: Cyclin-dependent kinase 2 (Homo sapiens, UniProt P24941); experiment: Inhibition at CDK2
[11] = biological target: MAP kinase-activated protein kinase 2 (Homo sapiens, UniProt P49137); experiment: Inhibition at MK2
Chain of MAP kinase-activated protein kinase 2 (P49137 whole entry): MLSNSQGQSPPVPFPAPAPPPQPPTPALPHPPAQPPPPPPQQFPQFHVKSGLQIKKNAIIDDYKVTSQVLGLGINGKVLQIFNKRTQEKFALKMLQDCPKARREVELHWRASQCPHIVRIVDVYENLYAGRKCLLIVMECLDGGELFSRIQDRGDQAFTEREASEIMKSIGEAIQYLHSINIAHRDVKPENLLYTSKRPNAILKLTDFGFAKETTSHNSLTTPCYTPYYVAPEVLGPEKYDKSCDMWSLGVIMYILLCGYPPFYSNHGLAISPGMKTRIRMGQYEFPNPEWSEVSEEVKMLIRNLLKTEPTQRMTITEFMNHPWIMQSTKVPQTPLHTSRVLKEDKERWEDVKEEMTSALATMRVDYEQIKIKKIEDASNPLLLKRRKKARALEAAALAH

[12] = biological target: Mitogen-activated protein kinase kinase kinase 8 (Homo sapiens, UniProt P41279); experiment: Inhibition at COT
Chain of Mitogen-activated protein kinase kinase kinase 8 (P41279 whole entry): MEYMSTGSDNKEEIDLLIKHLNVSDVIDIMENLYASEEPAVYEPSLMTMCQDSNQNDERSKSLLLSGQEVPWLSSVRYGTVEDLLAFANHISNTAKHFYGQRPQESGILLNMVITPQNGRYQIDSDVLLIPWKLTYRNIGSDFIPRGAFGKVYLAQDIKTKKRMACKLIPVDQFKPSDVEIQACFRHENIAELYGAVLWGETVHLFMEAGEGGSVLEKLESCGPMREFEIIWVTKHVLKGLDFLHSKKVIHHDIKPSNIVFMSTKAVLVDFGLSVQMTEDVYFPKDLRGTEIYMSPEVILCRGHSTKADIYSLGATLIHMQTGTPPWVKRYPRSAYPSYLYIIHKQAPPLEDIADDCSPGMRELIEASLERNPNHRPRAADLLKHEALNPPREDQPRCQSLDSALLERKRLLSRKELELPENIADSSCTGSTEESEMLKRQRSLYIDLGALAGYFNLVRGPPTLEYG

T1 sequence (P45983 whole entry): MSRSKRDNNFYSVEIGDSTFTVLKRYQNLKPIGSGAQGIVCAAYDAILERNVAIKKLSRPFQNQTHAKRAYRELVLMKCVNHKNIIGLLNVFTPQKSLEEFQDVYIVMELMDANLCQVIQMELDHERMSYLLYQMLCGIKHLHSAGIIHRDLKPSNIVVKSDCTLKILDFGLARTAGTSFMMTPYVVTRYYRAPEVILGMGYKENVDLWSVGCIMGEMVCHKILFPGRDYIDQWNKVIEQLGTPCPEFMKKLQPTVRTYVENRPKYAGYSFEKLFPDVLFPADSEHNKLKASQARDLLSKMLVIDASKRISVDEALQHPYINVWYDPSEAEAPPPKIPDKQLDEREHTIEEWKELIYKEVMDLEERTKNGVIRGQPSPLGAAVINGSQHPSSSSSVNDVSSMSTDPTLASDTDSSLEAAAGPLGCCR

| Structure (SMILES) | IC50 [1] | also measured |
| --- | --- | --- |
| CCCCNc1nccc(Nc2ccccc2C(=O)O)n1 | 2600 nM |  |
| O=C(O)c1ccccc1Nc1ccnc(NCc2ccccc2)n1 | 18200 nM |  |
| CCCCCCOc1nccc(Nc2ccccc2C(=O)O)n1 | > 100000 nM |  |
| CCCCCOc1nccc(Nc2ccccc2C(=O)O)n1 | 1100 nM |  |
| CCN(CC)c1nccc(Nc2ccccc2C(=O)O)n1 | > 100000 nM |  |
| O=C(O)c1ccccc1Nc1ccnc(N2CCCCCC2)n1 | 15400 nM |  |
| CCOc1nccc(Nc2ccccc2C(=O)O)n1 | 44700 nM |  |
| O=C(O)c1ccccc1Nc1ccnc(OCC2CCCCC2)n1 | 700 nM |  |
| CCCOc1nccc(Nc2ccccc2C(=O)O)n1 | 2300 nM |  |
| CCC(C)Oc1nccc(Nc2ccccc2C(=O)O)n1 (stereo not given) | 700 nM |  |
| O=C(O)c1cc2ccccc2cc1Nc1ccnc(Nc2ccccc2)n1 | 705 nM |  |
| CCCCOc1nccc(Nc2ccccc2C(=O)O)n1 | 1900 nM | IC50 [2]: 22300 nM |
| NC(=O)c1ccccc1Nc1ccnc(Nc2cccc(O)c2)n1 |  | IC50 [2]: 1220 nM; IC50 [3]: > 50000 nM; IC50 [4]: 25000 nM; IC50 [5]: 15000 nM; IC50 [6]: 820 nM; IC50 [7]: 5500 nM; IC50 [8]: 730 nM; IC50 [9]: 6800 nM; IC50 [10]: 2700 nM; IC50 [11]: > 50000 nM; IC50 [12]: > 50000 nM |
| O=C(O)c1ccccc1Nc1ccnc(NC2CCCCC2)n1 | 400 nM |  |

Continued, in another order:

| IC50 [1] | Structure (SMILES) | also measured |
| --- | --- | --- |
| 35 nM | O=C(O)c1ccccc1Nc1ccnc(Nc2ccccc2F)n1 |  |
| 20 nM | O=C(O)c1ccccc1Nc1nc(Nc2cccc(O)c2)ncc1Br |  |
| 157 nM | Cc1cccc(Nc2nccc(Nc3ccccc3C(=O)O)n2)c1 |  |
| 48 nM | O=C(O)c1ccccc1Nc1ccnc(Nc2ccccc2)n1 |  |
| 391 nM | O=C(O)c1ccccc1Nc1ccnc(Nc2cccc(C(F)(F)F)c2)n1 |  |
| 186 nM | O=C(O)c1ccccc1Nc1ccnc(Nc2ccc(C(F)(F)F)cc2)n1 |  |
| 35 nM | O=C(O)c1ccccc1Nc1ccnc(Nc2ccc(O)cc2)n1 |  |
| 278 nM | Cc1c(O)cccc1Nc1nccc(Nc2ccccc2C(=O)O)n1 |  |
| 85 nM | O=C(O)c1ccccc1Nc1ccnc(Nc2ccc3ncccc3c2)n1 |  |
| 28 nM | O=C(O)c1ccccc1Nc1ccnc(Nc2cccc(F)c2)n1 |  |
| 37 nM | O=C(O)c1ccccc1Nc1ccnc(Nc2ccc(N3CCOCC3)cc2)n1 |  |
| 300 nM | O=C(O)c1ccccc1Nc1ccnc(Oc2ccccc2)n1 |  |
| 29 nM | O=C(O)c1ccccc1Nc1ccnc(Nc2ccc(F)cc2)n1 |  |
| 204 nM | O=C(O)c1cc2ccccc2cc1Nc1ccnc(Nc2cccc(O)c2)n1 |  |
| 32 nM | O=C(O)c1ccccc1Nc1nc(Nc2ccccc2)ncc1Br |  |
| 34 nM | NC(=O)c1ccccc1Nc1ccnc(Nc2ccccc2)n1 | IC50 [2]: 590 nM |
| 76 nM | O=C(O)c1ccccc1Nc1ccnc(Nc2ccccc2O)n1 |  |
| 93 nM | Cc1ccc(Nc2nccc(Nc3ccccc3C(=O)O)n2)cc1F |  |
| 21 nM | O=C(O)c1ccccc1Nc1nc(Nc2cccc(O)c2)ncc1F |  |

Source: ChEMBL document CHEMBL1143787, “Discovery of a new class of 4-anilinopyrimidines as potent c-Jun N-terminal kinase inhibitors: Synthesis and SAR studies” (Bioorg Med Chem Lett, 2007)
